# Source: US20180125988A1, “TARGETED XTEN CONJUGATE COMPOSITIONS AND METHODS OF MAKING SAME” (AMUNIX OPERATING INC., priority 2014, published 2018)
# Where a SMILES comes first, the peptide text is derived from it. [ ]: non-standard residue; d: D form. The star is where a group is joined. Dolaproine = CO[C@@H]([C@@H]1CCCN1)[C@@H](C)C(=O)O; Dil = CC[C@H](C)[C@H](NC)[C@@H](CC(=O)O)OC; X1 = C[C@@H](N*)[C@@H](O)c1ccccc1; NMeV = CN[C@H](C(=O)O)C(C)C
# What was measured:
# [1] = in Man; cited from earlier work
# [2] = tested on: folate receptor-positive KB cell line; assay: CellTiter-Glo anti-proliferation assay, 3xFA(γ),3xMMAE-XTEN on KB cells with or without folic acid competitor; assay type: cell-based; settings: Homo sapiens, no folic acid competitor
# Method: The ability to selectively target and kill cells bearing folate receptors was evaluated. Test articles of free MMAE, a non-targeting 3xMMAE-XTEN conjugate (XTEN linked to toxin) and the folate receptor-targeted 3xFA(γ),3xMMAE-XTEN conjugate were evaluated in a CellTiter-Glo anti-proliferation assay using the folate receptor-positive KB cell line. As culture media contain high folic acid content, KB cells were grown in folic acid-free media containing 10% heat-inactivated fetal calf serum at 37° C., 5% CO2 for at least 7 days prior to the commencement of the cell viability experiment, This medium was also utilized for the execution of the experiment. In brief, KB cells were plated at 10,000 cells per well onto a 96-well microtiter assay plate. KB cells were allowed to adhere to the plate by an overnight incubation at 37° C., 5% CO2. The spent media was then removed and wells designated to contain folic acid competitor received assay medium containing folic acid, while wells not designated to have folic acid competitor received assay medium only. The plate was incubated for 30 min at 37° C., 5% CO2 before the assay media was aspirated and plate washed with assay media. […] After the appropriate incubation period, CellTiter-Glo reagent was added and the plate was read on a luminometer. The IC50 of each test article was determined using a 4 parameter logistic curve fit using GraphPad Prism.
Molecule,half-life [1],IC50 [2]
pyroGlu-His-Trp-Ser-Tyr-Gly-Leu-Arg-Pro-Gly-NH2 [LHRH],less than 4 minutes,
"CC[C@H](C)[C@@H]([C@@H](CC(=O)N1CCC[C@H]1[C@H](OC)[C@@H](C)C(=O)N[C@H](C)[C@@H](O)c1ccccc1)OC)N(C)C(=O)[C@@H](NC(=O)[C@@H](NC)C(C)C)C(C)C [MMAE, monomethyl auristatin E] (H-[NMeV]V[Dil][Dolaproine]-X1)",,800 pM
